# Key:
# A. baumannii strain 5075 = experiment: Time kill curve; format: cell-based, Acinetobacter baumannii; conditions: for growth similar to the control after: AB5075, time kill curve; for Initial toxicity seen until (time point): AB5075 growth, time kill curve
# Procedure: A. baumannii strain 5075 was grown in the presence of compound 1 at either 20 μM or 30 μM, and samples were plated at 2, 4, 6, 8, and 24 hour time points. Initial toxicity was seen until the 4-hour time point for 20 μM and 8-hour time point for 30 μM; however, growth was similar to the control after 6 hours for 20 μM and 24 hours for 30 μM.
# A. baumannii 5075 was grown overnight (16 hours) in CAMHB at 37° C. with shaking. This culture was then subcultured to 5×10^5 CFU/mL in fresh CAMHB. The inoculated media was aliquoted (3 mL) into culture tubes, and the compound was added from 100 mM stock solutions. Untreated inoculated culture tubes served as the control, and tubes were incubated at 37° C. with shaking. Samples were taken at 2, 4, 6, 8, and 24 hour time points and were serially diluted in fresh CAMHB and plated on LB agar. Plates were incubated under stationary conditions overnight at 37° C. After incubation, colonies were enumerated and growth curves were constructed.
# AB5075 [1] = experiment: H33342 accumulation assay (efflux); format: cell-based, Acinetobacter baumannii
# Procedure: In addition to the evaluation of the relationship between compounds 1 and 4 and colistin, the impact of compound 1 on efflux was evaluated using AB5075 and a bisBenzimide H33342 trihydrochloride (H33342) accumulation assay. Using a procedure adapted from Coldham et al. (A 96-well plate fluorescence assay for assessment of cellular permeability and active efflux in Salmonella enterica serovar Typhimurium and Escherichia coli. J Antimicrob Chemother, 2010. 65(8): p. 1655-63) and Richmond et al. (Efflux in Acinetobacter baumannii can be determined by measuring accumulation of H33342 (bis-benzamide). J Antimicrob Chemother, 2013. 68(7): p. 1594-600), the effect of no treatment, a known inhibitor carbonyl cyanide-m-chlorophenyl hydrazone (CCCP), and compound 1 on efflux was analyzed over 30 minutes and in two different treatment variations. Fluorescence was read using excitation and emission filters of 355 and 460 nm, and the values were processed in excel. The first analysis was performed immediately after treating the bacteria with compound 1 at both 10 and 30 μM and CCCP at 25 μM.
# The second analysis was performed after exposing the bacteria to compound 1 at 30 μM for 5-hours shaking at 37° C.
# [2] = system: A. baumannii mutant AB1310; experiment: MIC against Tn-seq transposon mutant AB1310; format: cell-based; conditions: Acinetobacter baumannii
# Procedure: During individual MIC screening, two mutants, AB522 and AB1310, were identified due to their increased sensitivity to the three macrolide antibiotics and vancomycin when compared to AB 5075 (Table 17).
# Day Cultures (6 h) were subcultured to 5×10^5 CFU/mL in cation adjusted Mueller-Hinton broth (CAMHB). Aliquots (1 mL) were placed in culture tubes, and compound was added from 100 mM stock solutions, such that the compound concentration equaled the highest concentration tested (200 μM or 64 μg/mL). Samples were then aliquoted (200 μL) into the first row of wells of a 96-well plate, with all remaining wells being filled with 100 μL of initial bacterial subculture. The wells in row one were mixed five times before 100 μL was transferred to the following row (row two). Row two was then mixed five times, and 100 μL was transferred to row three. This processed was repeated until the final row had been mixed. This process provided a serial dilution of the compound. Plates were covered with Glad Press n'Seal and were incubated under stationary conditions at 37° C. for 16 hours. MIC values were recorded as the lowest concentration at which no bacterial growth was observed.
# AB5075 [3] = experiment: G. mellonella model infected with AB5075, survival; format: in vivo, Galleria mellonella
# Procedure: Galleria mellonella larvae (Speedy Worm, Alexandria, Minn.) were used within ten days of shipment from the vendor. After reception of worms, larvae were kept in the dark at room temperature for at least 24 h before infection. Larvae weighing between 200 to 300 mg were used in the survival assay. Using a 10 μL glass syringe (Hamilton, Reno, Nev.) fitted with a 30 G needle (Exel International, St. Petersburg, Fl), 5 μL of the desired compound and concentration were injected into the last left proleg. After 2.5 h, a second 5 μL injection containing 6×10^5 CFU of Acinetobacter baumannii 5075 was injected into the second to last left proleg. Injected worms were left at room temperature in the dark while being assessed at 24 h intervals over 6 days. […] Experiment was repeated 7 times using 10 larvae per experimental group.
structure (smiles),measurement,setting,value
Nc1nc(-c2ccc(NC(=O)c3cc(Cl)cc(Cl)c3)cc2)c[nH]1 [Compound 1],growth similar to the control after,A. baumannii strain 5075; compound alone at 20 μM,6 h
same,Initial toxicity seen until (time point),A. baumannii strain 5075; compound alone at 20 μM,4 h
same,growth similar to the control after,A. baumannii strain 5075; compound alone at 30 μM,24 h
same,Initial toxicity seen until (time point),A. baumannii strain 5075; compound alone at 30 μM,8 h
same,"H33342 accumulation, fluorescence at 355 and 460 nm","AB5075 [1]; 10 μM compound, immediately following exposure, time 0 minutes","14,084.3 ± 2,839.3"
same,"H33342 accumulation, fluorescence at 355 and 460 nm","AB5075 [1]; 10 μM compound, immediately following exposure, time 10 minutes","12,812.4 ± 2,718.2"
same,"H33342 accumulation, fluorescence at 355 and 460 nm","AB5075 [1]; 10 μM compound, immediately following exposure, time 20 minutes","11,627.8 ± 3,119"
same,"H33342 accumulation, fluorescence at 355 and 460 nm","AB5075 [1]; 10 μM compound, immediately following exposure, time 30 minutes","12,147.8 ± 2,742.8"
same,"H33342 accumulation, fluorescence at 355 and 460 nm","AB5075 [1]; 30 μM compound, following exposure for 5 hours, time 0 minutes","12,226.7 ± 4,671.7"
same,"H33342 accumulation, fluorescence at 355 and 460 nm","AB5075 [1]; 30 μM compound, following exposure for 5 hours, time 10 minutes","15,247 ± 5,499.3"
same,"H33342 accumulation, fluorescence at 355 and 460 nm","AB5075 [1]; 30 μM compound, following exposure for 5 hours, time 20 minutes","25,603.1 ± 5,212.9"
same,"H33342 accumulation, fluorescence at 355 and 460 nm","AB5075 [1]; 30 μM compound, following exposure for 5 hours, time 30 minutes","33,441.1 ± 3,260.3"
same,"H33342 accumulation, fluorescence at 355 and 460 nm","AB5075 [1]; 30 μM compound, immediately following exposure, time 0 minutes","21,152.2 ± 5,161.7"
same,"H33342 accumulation, fluorescence at 355 and 460 nm","AB5075 [1]; 30 μM compound, immediately following exposure, time 10 minutes","21,651 ± 8,731.7"
same,"H33342 accumulation, fluorescence at 355 and 460 nm","AB5075 [1]; 30 μM compound, immediately following exposure, time 20 minutes","19,748.3 ± 9,182.4"
same,"H33342 accumulation, fluorescence at 355 and 460 nm","AB5075 [1]; 30 μM compound, immediately following exposure, time 30 minutes","19,562.4 ± 9,574"
same,H33342 fluorescence versus untreated,AB5075 [1]; after exposure to compound at 30 μM for 5 hours,comparable fluorescence values
same,change in H33342 fluorescence over 30 minutes,"AB5075 [1]; immediately after treating, compound 1 at both 10 and 30 μM, CCCP at 25 μM",a decrease in fluorescence
same,MIC,[2],12.5 µM
same,survival rate after 6 days,AB5075 [3]; combination treatment of clarithromycin (25 mg/kg) and compound 1 (100 mg/kg),42%
same,survival after 6 days,AB5075 [3]; compound 1 alone at 100 mg/kg,5%
Nc1nc(-c2ccc(NC(=O)c3cc(Br)cc(Br)c3)cc2)c[nH]1 [Compound 4],MIC,[2],12.5 µM

# Reference: US20210283107A1, “Methods to Expand the Spectrum of Gram-Positive Antibiotics” (NORTH CAROLINA STATE UNIVERSITY, priority 2016, published 2021)
